This experiment concerns L1210 leukemia ip in BDF1 mice, survival T/C. Kind of experiment: NCI In Vivo Anticancer Drug Screen. Data for tumor model L1210 Leukemia (intraperitoneal) in B6D2F1 (BDF1) mice. As to conditions: endpoint: mean survival time, higher = longer survival. In outline:
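Survival endpoint. Drug-treated group vs vehicle group, expressed as T divided by C. Tumor passaged by transplantation.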

[1] abbreviates: dose: 100.0 mg/kg/injection, schedule: Q01DX001 (ip), vehicle: Klucel (hydroxypropylcellulose) (HPC).
Setting [2] is: dose: 200.0 mg/kg/injection, schedule: Q01DX001 (ip), vehicle: Klucel (hydroxypropylcellulose) (HPC).
Where [3] appears, read: dose: 100.0 mg/kg/injection, schedule: Q04DX003 (ip), vehicle: Klucel (hydroxypropylcellulose) (HPC).
Where [4] appears, read: dose: 100.0 mg/kg/injection, schedule: Q04DX003 (ip), vehicle: saline.
The mark [5] stands for this setting: dose: 200.0 mg/kg/injection, schedule: Q04DX003 (ip), vehicle: saline.
[6] abbreviates: dose: 100.0 mg/kg/injection, schedule: Q04DX003 (ip), vehicle: saline with Tween-80.
[7] abbreviates: dose: 400.0 mg/kg/injection, schedule: Q04DX003 (ip), vehicle: saline with Tween-80.
[8] abbreviates: dose: 50.0 mg/kg/injection, schedule: Q01DX001 (ip), vehicle: saline.
Setting [9] is: dose: 100.0 mg/kg/injection, schedule: Q01DX001 (ip), vehicle: saline.
Setting [10] is: dose: 200.0 mg/kg/injection, schedule: Q01DX001 (ip), vehicle: saline.
Where [11] appears, read: dose: 400.0 mg/kg/injection, schedule: Q01DX001 (ip), vehicle: saline.
[12] abbreviates: dose: 100.0 mg/kg/injection, schedule: Q01DX009 (ip), vehicle: Klucel (hydroxypropylcellulose) (HPC).
The mark [13] stands for this setting: dose: 200.0 mg/kg/injection, schedule: Q01DX009 (ip), vehicle: Klucel (hydroxypropylcellulose) (HPC).
Where [14] appears, read: dose: 400.0 mg/kg/injection, schedule: Q01DX009 (ip), vehicle: Klucel (hydroxypropylcellulose) (HPC).

Values joined by “and” are separate entries in the source; they are usually repeats but may differ in a detail not shown here. Equal entries are not always repeated. Toxic doses and inconclusive results are not listed.

`c1ccc(-c2nnc3ccccn23)cc1`: the T/C is 102 % of control under setting [1] and 106 % of control under setting [2].

On to `COC(OC)c1cc(=O)[nH]c(=S)[nH]1`, for which the T/C was 100 % of control (dose: 25.0 mg/kg/injection, schedule: Q04DX003 (ip), vehicle: Klucel (hydroxypropylcellulose) (HPC)); 111 % of control (dose: 50.0 mg/kg/injection, schedule: Q01DX001 (ip), vehicle: Klucel (hydroxypropylcellulose) (HPC)); 91 % of control (dose: 50.0 mg/kg/injection, schedule: Q04DX003 (ip), vehicle: Klucel (hydroxypropylcellulose) (HPC)); 90 % of control under setting [1]; 92 % of control under setting [3]; 98 % of control under setting [2].

With `CCCC1([N+]2(C)CCCC2)CS(=O)C1CC` (configuration not stated), the T/C is 98 % of control under setting [4] and 93 % of control under setting [5].

Turning to `O=C(Cn1ccccc1=O)c1ccccc1`, the T/C was 101 % of control under setting [6] and 100 % of control under setting [7].

For the compound `O=C1C2CC=CCC2C(=O)C2CC=CCC12` (configuration not stated), the T/C by setting is: (dose: 100.0 mg/kg/injection, schedule: Q01DX009 (ip), vehicle: saline with Tween-80) 99 % of control; (dose: 200.0 mg/kg/injection, schedule: Q01DX009 (ip), vehicle: saline with Tween-80) 93 % of control; (dose: 400.0 mg/kg/injection, schedule: Q01DX009 (ip), vehicle: saline with Tween-80) 90 % of control.

Regarding `OC1CCCCC1Br` (configuration not stated), the T/C under setting [8] was 96 % of control, the T/C under setting [9] was 98 % of control, the T/C under setting [10] was 113 % of control and the T/C under setting [11] was 102 % of control.

Consider `NC(=S)NNC1CCCCC1`, for which the T/C is 94 % of control (dose: 22.0 mg/kg/injection, schedule: Q01DX Z (ip), vehicle: methylcellulose (MC)); 117 % of control (dose: 33.0 mg/kg/injection, schedule: Q01DX Z (ip), vehicle: methylcellulose (MC)); 93 % of control (dose: 50.0 mg/kg/injection, schedule: Q01DX Z (ip), vehicle: methylcellulose (MC)).

For the compound `CS(=O)(=O)Nc1nc2ccccc2s1`, the T/C (dose: 100.0 mg/kg/injection, schedule: Q04DX003 (ip), vehicle: carboxymethylcellulose (CMC)) is 98 % of control; the T/C (dose: 200.0 mg/kg/injection, schedule: Q04DX003 (ip), vehicle: carboxymethylcellulose (CMC)) is 98 % of control; the T/C (dose: 400.0 mg/kg/injection, schedule: Q04DX003 (ip), vehicle: carboxymethylcellulose (CMC)) is 97 % of control.

Take `CCN(CC)c1ccc(N=Cc2ccccc2S(=O)(=O)O)cc1`: the T/C was 95 % of control (dose: 6.25 mg/kg/injection, schedule: Q01DX009 (ip), vehicle: saline); 97 % of control (dose: 6.25 mg/kg/injection, schedule: Q04DX003 (ip), vehicle: saline sonified); 96 % of control (dose: 12.5 mg/kg/injection, schedule: Q01DX009 (ip), vehicle: saline); 103 % of control (dose: 12.5 mg/kg/injection, schedule: Q04DX003 (ip), vehicle: saline sonified); 93 % of control (dose: 25.0 mg/kg/injection, schedule: Q01DX009 (ip), vehicle: saline); 110 % of control (dose: 25.0 mg/kg/injection, schedule: Q04DX003 (ip), vehicle: saline sonified).

Take `CN(C)C=NCCOCc1ccccc1`: the T/C was 98 % of control under setting [4] and 93 % of control under setting [5].

Regarding `CC(=N/N=C(N)N)/C(C)=N/N=C(N)N`, the T/C runs as follows: (dose: 15.0 mg/kg/injection, schedule: Q01DX Z (ip), vehicle: saline) 98 % of control; (dose: 30.0 mg/kg/injection, schedule: Q01DX Z (ip), vehicle: saline) 97 % of control; (dose: 60.0 mg/kg/injection, schedule: Q01DX005 (oral), vehicle: saline) 96 % of control; (dose: 60.0 mg/kg/injection, schedule: Q01DX Z (ip), vehicle: saline) 108 % of control; (dose: 120.0 mg/kg/injection, schedule: Q01DX Z (ip), vehicle: saline) 98 % of control.

With `CCOC(=O)C1(c2cc(NS(=O)(=O)N(C)C)c(Cl)cc2NS(=O)(=O)N(C)C)CCCC1=O` (configuration not stated), the T/C was 104 % of control under setting [8], 102 % of control under setting [9] and 91 % of control under setting [10].

`Cc1ccccc1CN(C)N=O`: the T/C is, setting by setting: under setting [9], 101 % of control; under setting [10], 94 % of control; under setting [11], 91 % of control.

As for `CCCCCCCCCCCCSCCNC(=O)CCl`, the T/C reads like this: under setting [12], 87 % of control; under setting [3], 95 % of control; under setting [13], 92 % of control; (dose: 200.0 mg/kg/injection, schedule: Q04DX003 (ip), vehicle: Klucel (hydroxypropylcellulose) (HPC)) 92 % of control; under setting [14], 88 % of control; (dose: 400.0 mg/kg/injection, schedule: Q04DX003 (ip), vehicle: Klucel (hydroxypropylcellulose) (HPC)) 92 % of control.

With `CCCCNC(=S)NNC(=O)c1ccncc1`, the T/C was 107 % of control (dose: 100.0 mg/kg/injection, schedule: Q04DX002 (ip), vehicle: Klucel (hydroxypropylcellulose) (HPC)); 95 % of control and 105 % of control (dose: 200.0 mg/kg/injection, schedule: Q04DX002 (ip), vehicle: Klucel (hydroxypropylcellulose) (HPC)); 96 % of control and 98 % of control (dose: 400.0 mg/kg/injection, schedule: Q04DX002 (ip), vehicle: Klucel (hydroxypropylcellulose) (HPC)).

For `O=C(OC/C(=C\Cl)OC(=O)c1ccc([N+](=O)[O-])cc1)c1ccc([N+](=O)[O-])cc1`, the T/C is 100 % of control under setting [12], 105 % of control under setting [13] and 100 % of control under setting [14].

For `CCCCCCOC(=O)C(C)(O)C(Cl)c1ccccc1` (configuration not stated), the T/C reads like this: (dose: 100.0 mg/kg/injection, schedule: Q04DX002 (ip), vehicle: saline) 100 % of control; (dose: 200.0 mg/kg/injection, schedule: Q04DX002 (ip), vehicle: saline) 111 % of control; (dose: 400.0 mg/kg/injection, schedule: Q04DX002 (ip), vehicle: saline) 91 % of control.

With `Nc1ncnc2c1ncn2C1CCCCC1`, the T/C was 89 % of control (dose: 17.5 mg/kg/injection, schedule: Q01DX Z (ip), vehicle: carboxymethylcellulose (CMC)); 98 % of control (dose: 34.0 mg/kg/injection, schedule: Q01DX Z (ip), vehicle: carboxymethylcellulose (CMC)); 97 % of control (dose: 34.0 mg/kg/injection, schedule: Q01DX Z (oral), vehicle: carboxymethylcellulose (CMC)); 102 % of control (dose: 68.0 mg/kg/injection, schedule: Q01DX Z (ip), vehicle: carboxymethylcellulose (CMC)); 100 % of control (dose: 68.0 mg/kg/injection, schedule: Q01DX Z (oral), vehicle: carboxymethylcellulose (CMC)); 102 % of control (dose: 136.0 mg/kg/injection, schedule: Q01DX Z (oral), vehicle: carboxymethylcellulose (CMC)).

On to `NC(Cc1cc([N+](=O)[O-])ccc1CN(CCCl)CCCl)C(=O)O` (configuration not stated), for which the T/C was 161 % of control (dose: 3.6 mg/kg/injection, schedule: Q04DX003 (ip), vehicle: saline); 198 % of control (dose: 6.0 mg/kg/injection, schedule: Q01DX001 (ip), vehicle: saline); 158 % of control and 315 % of control (dose: 6.0 mg/kg/injection, schedule: Q04DX003 (ip), vehicle: saline); 173 % of control and 248 % of control (dose: 10.0 mg/kg/injection, schedule: Q01DX001 (ip), vehicle: saline); 163 % of control and 352 % of control (dose: 10.0 mg/kg/injection, schedule: Q04DX003 (ip), vehicle: saline); 302 % of control and 309 % of control (dose: 16.7 mg/kg/injection, schedule: Q01DX001 (ip), vehicle: saline). In addition, the T/C (dose: 16.7 mg/kg/injection, schedule: Q04DX003 (ip), vehicle: saline) is 151 % of control.

`Cc1cc(N(CCCl)CCCl)ccc1C=Nc1cccc2ncccc12`: the T/C was 95 % of control (dose: 100.0 mg/kg/injection, schedule: Q01DX001 (ip), vehicle: other); 97 % of control (dose: 200.0 mg/kg/injection, schedule: Q01DX001 (ip), vehicle: other); 93 % of control (dose: 400.0 mg/kg/injection, schedule: Q01DX001 (ip), vehicle: other).

`NC(=O)c1ccc(OC(F)(F)C(F)Cl)cc1OC(F)(F)C(F)Cl` (configuration not stated): the T/C under setting [6] is 98 % of control and the T/C under setting [7] was 102 % of control.

For the origin of these results see PubChem BioAssay AID248 (DTP/NCI, 2004).
